The record followed here is patent US20190000868A1, “COMPOSITIONS COMPRISING 4'-O-GLUCURONIDE EPICATECHIN AND METHODS OF MAKING AND USING SUCH COMPOSITIONS” (NESTEC S.A., priority 2015, published 2019).

For this test, the system named is endothelial nitric oxide synthase. As to the kind of experiment: eNOS phosphorylation (western blot) in isolated aortic rat rings. The class given is cell-based. On the set-up: dose or concentration left out as unconfirmed. Conditions: isolated thoracic aortic rings of male Wistar rats, incubated 1 h, FIG. 4. The method, then:
Comparative experiments were conducted on the expression of endothelial nitric oxide synthase in isolated aortic rat rings.
Thoracic aortas were obtained from male adults Wistar rats after euthanasia. Each aorta was carefully dissected and harvested cleaned of excess tissue and cut into three equal segments, approximately 7 mm long. All aortic rings were pre-incubated for 30 min in Krebs solution (20 mM Hepes buffer, pH 7.4, containing 119 mM NaCl, 4.7 mM KCl, 1 mM MgSO4, 0.4 mM NaH2PO4, 0.15 mM Na2HPO4, 5 mM NaHCO3, 1.25 mM CaCl2, 5.5 mM glucose) aerated with 95% O2 and 5% CO2 at 37° C. and then incubated with vehicle (DMSO 1%) or the different metabolites for 1 h. Metabolites were first dissolved in DMSO 1% and tested in a final concentration […]. At the end of the incubation period aortic rings were frozen at −70° C. until the homogenate preparation. Homogenates for western blot and western blot determinations were carried out by the regular procedures and phosphorylation level of endothelial nitric oxide synthase was evaluated.
On the technique in general: A western blot detects proteins with antibodies after separation by electrophoresis.

Each structure is given as a SMILES string.

For `O=C(O)[C@H]1O[C@@H](Oc2ccc([C@H]3Oc4cc(O)cc(O)c4C[C@H]3O)cc2O)[C@H](O)[C@@H](O)[C@@H]1O` [4′-O-glucuronide epicatechins, 4′-O-glucuronide epicatechin], the “phosphorylation level of endothelial nitric oxide synthase (p-eNOS vs eNOS total)” value is “increased eNOS phosphorylation relative to control and chemically similar epicatechins”.
